≈ marks a conversion by molar mass, not a printed value.
Assays:
[1] = test system: Candida glabrata ATCC 90030; assay: Anticandida activity, broth microdilution; assay type: cell-based; settings: Nakaseomyces glabratus, ATCC90030; positive control
Experimental: (§1) The test microorganisms included the following Gram-positive bacteria: Staphylococcus aureus ATCC 25923, Enterococcus faecalis ATCC 29212; Gram-negative bacteria: Escherichia coli ATCC 25922 and Pseudomonas aeruginosa ATCC 27853 and four Candida yeasts: Candida albicans ATCC 90028, C. glabrata ATCC 90030, C. kreusei ATCC 6258 and C. parapsilosis ATCC 22019).
(§2) The MIC values for the antibacterial and anticandidal screening were determined with the broth dilution method (microdilution using 96-well microplates) following the procedure described by Cintia et al. [35]. Briefly, all samples were prepared at a concentration of 10 mg/mL by dissolution of the extracts in 10% DMSO. The final concentrations of the plant samples tested ranged from 40 to 2 × 10^4 µg/mL. The MIC of each sample was defined as the lowest concentration of oil that inhibited either the bacterial or candidal growth, after incubation at 37 °C for 18 to 24 h. The MBC and the MFC were determined by subculture on blood agar at 37 °C for 18 to 24 h. Thymol and gentamicin or thymol and amphotericin B were used as positive controls against the bacterial or candidal strains, respectively. […] All tests were performed in triplicate.

[2] = test system: Candida parapsilosis ATCC 22019; assay: Anticandida activity, broth microdilution; assay type: cell-based; settings: Lodderomyces parapsilosis, ATCC22019; positive control
Experimental: as §1, §2

[3] = test system: Candida albicans ATCC 90028; assay: Anticandida activity, broth microdilution; assay type: cell-based; settings: ATCC90028, positive control
Experimental: as §1, §2

[4] = test system: Candida kreseui ATCC 6258; assay: Anticandida activity, broth microdilution; assay type: cell-based; settings: ATCC6258, positive control
Experimental: as §2

[5] = test system: human chronic myelogenous leukaemia cell line K562; assay: Cytotoxic activity (MTT assay); assay type: cell-based; settings: K562, 72 h
Experimental: Cytotoxic activity of extracts against the human chronic myelogenous leukaemia cell line K562 was estimated by the 3-(4,5-dimethylthiazol-2-yl)-2,5-diphenyltetrazolium bromide (MTT) assay of Khlifi et al.. The cells were grown in RPMI- 1640 medium supplemented with 10% faetal calf serum (Gibco, Gaithersburg, MD, USA), air and 5% CO2. The resulting blue formazan product can be measured spectrophotometrically. The MTT colorimetric assay was performed in 96-well plates. […] human chronic myelogenous leukaemia K562 cells were seeded in a 96-well plate at a concentration of 10^4 cells/well and incubated at 37 °C overnight in a 5% CO2 enriched atmosphere. Cells in exponential growth phase were incubated at 37 °C for 72 h with each tested compound at concentrations ranging from 3.12 to 400 μg/mL. After that, the medium was removed and cells were treated with MTT solution (100 μL, 0.2 mg/mL in PBS) at 37 °C for 2 h. MTT solution was then discarded and DMSO (500 μL) was added to dissolve insoluble formazan crystals. Optical density was measured at 540 nm. Each extract concentration was tested in triplicate. Doxorubicin was used as positive control.

[6] = test system: Staphylococcus aureus ATCC 25923; assay: Antibacterial activity, broth microdilution; assay type: cell-based; settings: ATCC25923, positive control
Experimental: as §2

[7] = test system: Enterococcus faecalis ATCC 29212; assay: Antibacterial activity, broth microdilution; assay type: cell-based; settings: ATCC29212, positive control
Experimental: as §2

[8] = test system: Pseudomonas aeruginosa ATCC 27853; assay: Antibacterial activity, broth microdilution; assay type: cell-based; settings: ATCC27853, positive control
Experimental: as §1, §2

[9] = test system: Escherichia coli ATCC 25922; assay: Antibacterial activity, broth microdilution; assay type: cell-based; settings: ATCC25922, positive control
Experimental: as §1, §2

[10] = Antioxidant activity by DPPH assay
Experimental: Diluted methanol solutions of the samples at different concentrations (1 mL each) were mixed with 1 mL of a freshly prepared (80 µg/mL) methanol solution of DPPH. The resulted solution was incubated at 37 °C for 30 min after what the absorbance of the solution was measured at 517 nm. Lower absorbance of the reaction mixture indicates higher free radical scavenging activity. Tests were carried out in triplicate. Decrease in absorption induced by the tested sample was compared to that of the positive control ascorbic acid. The capability to scavenge the DPPH^.radical was calculated using the following equation: Inhibition ratio (DPPH^. scavenging effect) (%) = [(Acontrol − Asample) / Acontrol] × 100 (1)
The IC50 was calculated using the linear relation between the compound concentration and the probability of the percentage of DPPH inhibition.

[11] = Antioxidant activity by ABTS assay
Experimental: ABTS was dissolved in water to a 7 mM concentration and the ABTS radical cation was produced by adding potassium persulfate to a final concentration of 2.45 mM [31]. The radical generation was completed in the dark at room temperature for 12 h. This solution was then diluted with methanol to adjust its absorbance at 734 nm to 0.706 ± 0.009. To determine the scavenging activity, 1 mL of diluted ABTS^+. solution was added to 1 mL of methanolic solutions of extract at different concentrations and the absorbance at 734 nm was measured 10 min after the initial mixing, using methanol as the blank. The percentage of inhibition was calculated by the equation: [(Acontrol − Asample)/Acontrol] × 100 (2) where Acontrol is the absorbance of the control reaction containing all reagents except the tested sample, and Asample is the absorbance of the test compound. Tests were carried out in triplicate. Ascorbic acid was used as the positive control. The IC50 was calculated using linear relation between the compound concentration and probability of the percentage of ABTS inhibition.

## C[C@@H]1[C@H](O)[C@@H](C)/C=C/C=C/C=C/C=C/C=C/C=C/C=C/[C@H](O[C@@H]2O[C@H](C)[C@@H](O)[C@H](N)[C@@H]2O)C[C@@H]2O[C@](O)(C[C@@H](O)C[C@@H](O)[C@H](O)CC[C@@H](O)C[C@@H](O)CC(=O)O[C@H]1C)C[C@H](O)[C@H]2C(=O)O [Amphotericin B]
[1]
  MFC: 0.5 mg/L (≈ 0.541 µM)
[2]
  MFC: 0.5 mg/L (≈ 0.541 µM)
[3]
  MFC: 0.5 mg/L (≈ 0.541 µM)
[4]
  MFC: 0.5 mg/L (≈ 0.541 µM)

## COc1cccc2c1C(=O)c1c(O)c3c(c(O)c1C2=O)C[C@@](O)(C(=O)CO)C[C@@H]3O[C@H]1C[C@H](N)[C@H](O)[C@H](C)O1 [Doxorubicin]
[5]
  IC50: 0.1 mg/L (≈ 0.184 µM)

## CNC(C)C1CCC(N)C(OC2C(N)CC(N)C(OC3OCC(C)(O)C(NC)C3O)C2O)O1 (stereo not shown) [Gentamecin, gentamicin]
[6]
  MBC: 0.15 mg/L (≈ 0.314 µM)
[7]
  MBC: 0.01 mg/L (≈ 0.0209 µM)
[8]
  MBC: 0.5 mg/L (≈ 1.05 µM)
[9]
  MBC: 0.01 mg/L (≈ 0.0209 µM)

## Cc1ccc(C(C)C)c(O)c1 [Thymol]
[6]
  MIC: 0.2 mg/L (≈ 1.33 µM)
[7]
  MIC: 0.6 mg/L (≈ 3.99 µM)
[8]
  MIC: 1 mg/L (≈ 6.66 µM)
[9]
  MIC: 0.25 mg/L (≈ 1.66 µM)
[1]
  MIC: 0.16 mg/L (≈ 1.07 µM)
[2]
  MIC: 0.32 mg/L (≈ 2.13 µM)
[3]
  MIC: 0.13 mg/L (≈ 0.865 µM)
[4]
  MIC: 0.32 mg/L (≈ 2.13 µM)

## O=C1O[C@H]([C@@H](O)CO)C(O)=C1O [Vitamin C, L-ascorbic acid]
[10]
  DPPH Assay IC50: 4.4 ± 0.1 mg/L
[11]
  ABTS+ Assay IC50: 4.1 ± 0.1 mg/L

Reference: article PMC6271717, “Chemical Composition, Biological and Cytotoxic Activities of Plant Extracts and Compounds Isolated from Ferula lutea” (Molecules, 2014)
